{
  "source": "patent US20200289520A1",
  "about": "“COMPOSITION AND METHOD FOR TREATING PERIPHERAL T-CELL LYMPHOMA AND CUTANEOUS T-CELL LYMPHOMA” (Rhizen Pharmaceuticals SA, priority 2017, published 2020)",
  "key": {"pAKT": {"tested_on": "pAKT", "experiment": "pAKT in patient-derived primary malignant T cells (Phosphoflow)", "type": "cell-based, human", "conditions": "CTCL donors n=6, 1.5 h incubation then cytokine activation 30 min; FIG. 4", "description": "(§1) The effect of Compound (A) on pAKT in patient-derived primary cells was also studied. Malignant T cells from Cutaneous T-cell Lymphoma (CTCL) patient donors (n=6) were purified using fluorescence-activated cell sorting (FACS) and cultured overnight in RPMI/1% BSA. Cells were incubated with desired concentrations of Compound (A) for 1.5 h followed by activation with a cytokine mixture (20 ng/ml IL2+5 ng/ml IL7+10 ng/ml IL15+10% FBS) for 30 min. pAKT was estimated using Phosphoflow and normalized to total AKT. Data were analyzed using Prism 5.0 software analysis. For apoptosis assays, FACS purified cells from CTCL donors (n=4) were cultured in RPMI/10% FBS+20 ng/ml IL2+5 ng/ml IL7+10 ng/ml IL15 with and without Compound (A), LY294002, or camptothecin for 48 h. Apoptosis was assayed by Annexin V/PI staining."}, "[1]": {"tested_on": "MOLT-4 (human T lymphoblast cell line) xenograft", "experiment": "MOLT-4 subcutaneous mouse xenograft model", "type": "in vivo", "description": "The anti-tumor effect of Compound (A) was determined in a MOLT-4 (representing human T lymphoblast cell line) subcutaneous mouse xenograft model. Briefly, 10^6 cells were injected into the flank region. Mice were randomized according to body weight into […] groups of five. A week after tumor cell injection, mice either received the vehicle, oral administration of Compound (A) at 50 mg/kg/BID Compound (A), or administration of cytarabine (Ara-C), over an 18-day study period. At the end of the study period, animals were sacrificed and the tumors harvested."}, "caspase-3": {"tested_on": "caspase-3", "experiment": "Induction of caspase 3 in T-lymphoma cell lines", "type": "cell-based", "conditions": "48 h incubation, fluorimetric; FIG. 3", "description": "Cells (Jurkat, MOLT-4, CCRF-CEM, HuT-78 and HuT-102) were incubated with desired concentrations of Compound (A) for 48 h. An equal number of cells per well (0.3×10^6 cells) were used. Increase in apoptosis manifested by an elevation in caspase-3 levels was determined using a Caspase-3 kit from Millipore. Induction of Caspase 3 by Compound A was measured fluorimetrically."}, "[2]": {"tested_on": "relapsed or refractory T-cell lymphoma", "experiment": "Phase I/Ib study in patients with relapsed or refractory T-cell lymphoma (PTCL and CTCL)", "type": "in vivo, human", "conditions": "for ORR (objective response rate) / ORR (objective response rate), patients: oral BID", "description": "This is a Phase I/Ib, 3+3 design study in patients with relapsed or refractory T-cell lymphoma\nCompound (A) (tenalisib) was given orally twice a day in 28-day cycles and dose-limiting toxicities (DLTs) were assessed during the first cycle.\nIntra-patient dose escalation was allowed following safety of higher doses. • Primary Objectives: The Safety, Pharmacokinetics (PK), Maximum Tolerated Dose (MTD) • Secondary Objectives: Pharmacodynamics, Overall response rate (ORR), Duration of response (DOR)\nHistologically confirmed T-cell Non-Hodgkin's lymphoma.\nRelapsed after, or refractory to ≥1 prior treatments, and not eligible for transplantation and or approved therapy; ECOG performance status ≤2; patient with measurable or evaluable disease; Adequate organ system function: ANC ≥750/μL; platelets ≥50 K/μL.\nPrior therapy that inhibits PI3K/BTK/mTOR were part of exclusion criteria."}, "[3]": {"tested_on": "T-cell lymphoma cell lines (Jurkat, MOLT-4, CCRF-CEM, HuT-78, HuT-102, Sez4 and HH)", "experiment": "Anti-proliferative effect in T-cell lymphoma cell lines (MTT assay)", "type": "cell-based", "conditions": "48-72 h incubation, FIG. 1", "description": "Compound (A) was tested across a panel of T-cell lymphoma cell lines (Jurkat, MOLT-4, CCRF-CEM, HuT-78, HuT-102, Sez4 and HH). Cells were plated in 96-well plates and incubated with desired concentrations of Compound A for 48-72 h. At the end of the incubation period, MTT ((3-(4,5-dimethylthiazol-2-yl)-2,5-diphenyltetrazolium bromide)) was added. The plate was placed on a shaker for 5 min to mix the formazan and the optical density at 560 nm was measured on a spectrophotometer. Data were plotted using Graphpad prism for calculation of the IC50 concentrations."}, "[4]": {"tested_on": "Malignant T cells from Cutaneous T-cell Lymphoma (CTCL) patient donors", "experiment": "Apoptosis by Annexin V/PI staining in purified malignant T-cells from CTCL donors", "type": "cell-based, human", "conditions": "CTCL donors n=4, 48 h, FIG. 5", "description": "as §1"}, "phospho-AKT (Ser473)": {"tested_on": "phospho-AKT (Ser473)", "experiment": "Reduction of pAKT in T-cell lymphoma cell lines (Western blotting)", "type": "cell-based", "conditions": "Western blot normalized to actin, FIG. 2", "description": "AKT, a serine threonine kinase mediates the downstream effects of PI3K activity and modulates several cell processes including survival and growth. Reduction of pAKT by Compound (A) in representative cell lines was determined by Western blotting using a phospho-AKT (Ser^473) antibody. Band intensity was measured and quantified using ImageJ software and normalized to actin."}},
  "note": "“Also recorded” adds a separate entry of the source.",
  "data": [
    {"smiles": "CC[C@H](Nc1ncnc2[nH]cnc12)c1oc2ccccc2c(=O)c1-c1cccc(F)c1", "note": "[Compound (A), (S)-2-(1-((9H-purin-6-yl)amino)propyl)-3-(3-fluorophenyl)-4H-chromen-4-one]", "values": [
      {"measurement": "inhibition of pAKT in purified malignant T-cells", "setting": "pAKT", "value": "dose-dependent inhibition of pAKT"},
      {"measurement": "tumor growth", "setting": "[1]; 50 mg/kg BID oral, 18-day study period, vs vehicle, FIG. 6", "value": "significantly delayed tumor growth; also recorded: significant delay in tumor growth"},
      {"measurement": "tolerability (body weight, adverse effects)", "setting": "[1]; mice, daily dose of 50 mg/kg", "value": "without body weight loss or noticeable adverse effects"},
      {"measurement": "caspase-3 induction", "setting": "caspase-3", "value": "dose-dependent increase in caspase-3"},
      {"measurement": "CR (complete response)", "setting": "[2]; All, 58 treated/35 evaluable", "value": "(9) %"},
      {"measurement": "CR (complete response), patients", "setting": "[2]; All, 58 treated/35 evaluable", "value": 3, "unit": "n"},
      {"measurement": "DCR (CR + PR + SD)", "setting": "[2]; All, 58 treated/35 evaluable", "value": 74, "unit": "%"},
      {"measurement": "DCR (CR + PR + SD), patients", "setting": "[2]; All, 58 treated/35 evaluable", "value": 26, "unit": "n"},
      {"measurement": "PD (progressive disease)", "setting": "[2]; All, 58 treated/35 evaluable", "value": 23, "unit": "%"},
      {"measurement": "PD (progressive disease), patients", "setting": "[2]; All, 58 treated/35 evaluable", "value": 8, "unit": "n"},
      {"measurement": "PR (partial response)", "setting": "[2]; All, 58 treated/35 evaluable", "value": "(37) %"},
      {"measurement": "PR (partial response), patients", "setting": "[2]; All, 58 treated/35 evaluable", "value": 13, "unit": "n"},
      {"measurement": "ORR (objective response rate)", "setting": "[2]; All, 58 treated/35 evaluable", "value": "(46) %"},
      {"measurement": "ORR (objective response rate), patients", "setting": "[2]; All, 58 treated/35 evaluable", "value": 16, "unit": "n"},
      {"measurement": "DCR (CR + PR + SD)", "setting": "[2]; CTCL, 30 treated/20 evaluable", "value": 80, "unit": "%"},
      {"measurement": "DCR (CR + PR + SD), patients", "setting": "[2]; CTCL, 30 treated/20 evaluable", "value": 16, "unit": "n"},
      {"measurement": "PD (progressive disease)", "setting": "[2]; CTCL, 30 treated/20 evaluable", "value": 20, "unit": "%"},
      {"measurement": "PD (progressive disease), patients", "setting": "[2]; CTCL, 30 treated/20 evaluable", "value": 4, "unit": "n"},
      {"measurement": "PR (partial response)", "setting": "[2]; CTCL, 30 treated/20 evaluable", "value": "(45) %"},
      {"measurement": "PR (partial response), patients", "setting": "[2]; CTCL, 30 treated/20 evaluable", "value": 9, "unit": "n"},
      {"measurement": "ORR (objective response rate)", "setting": "[2]; CTCL, 30 treated/20 evaluable", "value": "(45) %"},
      {"measurement": "ORR (objective response rate), patients", "setting": "[2]; CTCL, 30 treated/20 evaluable", "value": 9, "unit": "n"},
      {"measurement": "CR (complete response)", "setting": "[2]; PTCL, 28 treated/15 evaluable", "value": "(20) %"},
      {"measurement": "CR (complete response), patients", "setting": "[2]; PTCL, 28 treated/15 evaluable", "value": 3, "unit": "n"},
      {"measurement": "DCR (CR + PR + SD)", "setting": "[2]; PTCL, 28 treated/15 evaluable", "value": 74, "unit": "%"},
      {"measurement": "DCR (CR + PR + SD), patients", "setting": "[2]; PTCL, 28 treated/15 evaluable", "value": 10, "unit": "n"},
      {"measurement": "PD (progressive disease)", "setting": "[2]; PTCL, 28 treated/15 evaluable", "value": 27, "unit": "%"},
      {"measurement": "PD (progressive disease), patients", "setting": "[2]; PTCL, 28 treated/15 evaluable", "value": 4, "unit": "n"},
      {"measurement": "PR (partial response)", "setting": "[2]; PTCL, 28 treated/15 evaluable", "value": "(27) %"},
      {"measurement": "PR (partial response), patients", "setting": "[2]; PTCL, 28 treated/15 evaluable", "value": 4, "unit": "n"},
      {"measurement": "ORR (objective response rate)", "setting": "[2]; PTCL, 28 treated/15 evaluable", "value": "(47) %"},
      {"measurement": "ORR (objective response rate), patients", "setting": "[2]; PTCL, 28 treated/15 evaluable", "value": 7, "unit": "n"},
      {"measurement": "proliferation / growth of T-lymphoma cell lines", "setting": "[3]", "value": "dose-dependent reduction in proliferation"},
      {"measurement": "apoptosis in purified malignant T-cells", "setting": "[4]", "value": "dose-dependent increases in apoptosis"},
      {"measurement": "endogenous pAKT expression", "setting": "phospho-AKT (Ser473)", "value": "dose-dependent reduction"}
    ]}
  ]
}
